Data published in patent publication US7205382B2, “Peptides, the production and use thereof for binding immunoglobulins” (Fresenius Medical Care Affina GmbH, priority 2000, dated 2007).
Bridge positions count the residues as written; N and C are the ends. Square brackets hold non-standard residues; d marks the D form. Ends that are not written are not given here. cellulose = not defined here; βAla = NCCC(=O)O

Experiments:
Format in all cases: binding
Design in all cases: key: No binding of immunoglobulin for the defined peptide variant, detection negative: 0; Binding of immunoglobulin for the defined peptide variant, detection positive: +
[1] = system: human IgG-Fc; test: Cellulose-immobilized 13-mer peptide variants incubated with human IgG-Fc, anti-human IgG-AP detection; settings: IgG-Fc 1 μg/ml in blocking buffer, 3 h room temperature
Method: (§1) Peptides consisting of 13 amino acids were synthesized by solid phase synthesis (Houghten, 1985) on a cellulose matrix with (βA)(βA) as a spacer group.
(§2) The immobilized peptides were tested for their immunoglobulin binding capability by incubation with human IgG-Fc in a buffered solution and by incubation with human plasma.
(§3) Thus, the peptide variants immobilized on solid phases were washed with T-TBS buffer (136 mM NaCl, 1.6 mM KCl, 0.05% (v/v) Tween 20, 50 mM Tris-HCl, pH 8.0) and subsequently treated with blocking buffers (5% (w/v) saccharose, 4% (w/v) bovine serum albumin in T-TBS). Incubation of the immobilized peptides with IgG-Fc (1 μg/ml) in blocking buffer and human serum (diluted 1:10,000 in blocking buffer) was effected for 3 h at room temperature. For checking the specificity of the binding, buffered serum albumin solution (blocking buffer) without addition was included as a control. Thereafter, the peptide variants immobilized on the solid phases were washed three more times with T-TBS buffer.
(§4) After incubation with alkaline phosphatase-conjugated anti-human IgG antibody (1.2 μg/ml) in blocking buffer, detection of the immunoglobulin binding was effected by means of NBT (nitroblue tetrazolium chloride)/BCIP (5-bromo-4-chloro-3-indolyl phosphate toluidine salt) as a substrate (200 μl of parent solution (18.75 mg/ml NBT and 9.4 mg/ml BCIP in 67% (v/v) DMSO) in 10 ml developing buffer (100 mM Tris-HCl, 100 mM NaCl, 5 mM MgCl2, pH 9.5)).

[2] = system: serum albumin; test: Cellulose-immobilized 13-mer peptide variants incubated with serum albumin (negative control), anti-human IgG-AP detection; settings: blocking buffer without addition, 3 h room temperature
Method: as §1, §2, §3, §4

[3] = system: immunoglobulins in human plasma; test: Cellulose-immobilized 13-mer peptide variants incubated with human plasma, anti-human IgG-AP detection; settings: human plasma as sample, diluted 1:10,000 in blocking buffer, 3 h room temperature
Method: as §1, §2, §3, §4

Substance | Result for incubation with human IgG-Fc (immunoglobulin binding detection) [1] | Result for incubation with serum albumin (immunoglobulin binding detection) [2] | Result for incubation with human plasma (immunoglobulin binding detection) [3]
07E: cellulose-bound 13-mer variant DCAWHLEELVWCT-(βA)(βA) (DCAWHLEELVWCT-{βAla-βAla-cellulose}; disulfide 2-12 (inferred); not fully specified (N-terminus); printed as DCAWHLEELVWCT-(βA)(βA); reading uncertain) | 0 | 0 | 0
03M: cellulose-bound 13-mer variant DCMWHLGELVWCT-(βA)(βA) (DCMWHLGELVWCT-{βAla-βAla-cellulose}; disulfide 2-12 (inferred); reading uncertain; also: printed as DCMWHLGELVWCT-(βA)(βA)) | 0 | 0 | 0
01L: cellulose-bound 13-mer variant LCAWHLGELVWCT-(βA)(βA) (LCAWHLGELVWCT-{βAla-βAla-cellulose}; disulfide 2-12 (inferred); reading uncertain; also: printed as LCAWHLGELVWCT-(βA)(βA)) | + | 0 | 0
01R: cellulose-bound 13-mer variant RCAWHLGELVWCT-(βA)(βA) (RCAWHLGELVWCT-{βAla-βAla-cellulose}; disulfide 2-12 (inferred); reading uncertain; also: printed as RCAWHLGELVWCT-(βA)(βA)) | + | 0 | 0
04Y: cellulose-bound 13-mer variant DCAYHLGELVWCT-(βA)(βA) (disulfide 2-12 (inferred); not fully specified (N-terminus, C-terminus); printed as DCAYHLGELVWCT-(βA)(βA); also: cellulose-bound) | + | 0 | +
03G: cellulose-bound 13-mer variant DCGWHLGELVWCT-(βA)(βA) (DCGWHLGELVWCT-{βAla-βAla-cellulose}; disulfide 2-12 (inferred); reading uncertain; also: printed as DCGWHLGELVWCT-(βA)(βA)) | 0 | 0 | 0
07H: cellulose-bound 13-mer variant DCAWHLHELVWCT-(βA)(βA) (DCAWHLHELVWCT-{βAla-βAla-cellulose}; disulfide 2-12 (inferred); not fully specified (N-terminus); printed as DCAWHLHELVWCT-(βA)(βA); reading uncertain) | 0 | 0 | 0
04Q: cellulose-bound 13-mer variant DCAQHLGELVWCT-(βA)(βA) (disulfide 2-12 (inferred); not fully specified (N-terminus, C-terminus); printed as DCAQHLGELVWCT-(βA)(βA); also: cellulose-bound) | + | 0 | 0
01K: cellulose-bound 13-mer variant KCAWHLGELVWCT-(βA)(βA) (KCAWHLGELVWCT-{βAla-βAla-cellulose}; disulfide 2-12 (inferred); reading uncertain; also: printed as KCAWHLGELVWCT-(βA)(βA)) | + | 0 | 0
03T: cellulose-bound 13-mer variant DCTWHLGELVWCT-(βA)(βA) (DCTWHLGELVWCT-{βAla-βAla-cellulose}; disulfide 2-12 (inferred); reading uncertain; also: printed as DCTWHLGELVWCT-(βA)(βA)) | + | 0 | +

The remaining lines, values ahead:

Result for incubation with human IgG-Fc (immunoglobulin binding detection) [1] | Result for incubation with serum albumin (immunoglobulin binding detection) [2] | Result for incubation with human plasma (immunoglobulin binding detection) [3] | Substance
0 | 0 | 0 | 07W: cellulose-bound 13-mer variant DCAWHLWELVWCT-(βA)(βA) (DCAWHLWELVWCT-{βAla-βAla-cellulose}; disulfide 2-12 (inferred); not fully specified (N-terminus); printed as DCAWHLWELVWCT-(βA)(βA); reading uncertain)
0 | 0 | 0 | 10F: cellulose-bound 13-mer variant DCAWHLGELFWCT-(βA)(βA) (DCAWHLGELFWCT-{βAla-βAla-cellulose}; disulfide 2-12 (inferred); reading uncertain; also: printed as DCAWHLGELFWCT-(βA)(βA))
0 | 0 | 0 | 12G: cellulose-bound 13-mer variant DCAWHLGELVWGT-(βA)(βA) (DCAWHLGELVWGT-{βAla-βAla-cellulose}; not fully specified; printed as DCAWHLGELVWGT-(βA)(βA); reading uncertain)
0 | 0 | 0 | 01F: cellulose-bound 13-mer variant FCAWHLGELVWCT-(βA)(βA) (FCAWHLGELVWCT-{βAla-βAla-cellulose}; disulfide 2-12 (inferred); reading uncertain; also: printed as FCAWHLGELVWCT-(βA)(βA))
0 | 0 | 0 | 02T: cellulose-bound 13-mer variant DTAWHLGELVWCT-(βA)(βA) (DTAWHLGELVWCT[βAla][βAla]; not fully specified; printed as DTAWHLGELVWCT-(βA)(βA); also: cellulose-bound)
0 | 0 | 0 | 10A: cellulose-bound 13-mer variant DCAWHLGELAWCT-(βA)(βA) (DCAWHLGELAWCT-{βAla-βAla-cellulose}; disulfide 2-12 (inferred); reading uncertain; also: printed as DCAWHLGELAWCT-(βA)(βA))
0 | 0 | 0 | 07Q: cellulose-bound 13-mer variant DCAWHLQELVWCT-(βA)(βA) (DCAWHLQELVWCT-{βAla-βAla-cellulose}; disulfide 2-12 (inferred); not fully specified (N-terminus); printed as DCAWHLQELVWCT-(βA)(βA); reading uncertain)
0 | 0 | 0 | 08V: cellulose-bound 13-mer variant DCAWHLGVLVWCT-(βA)(βA) (DCAWHLGVLVWCT-{βAla-βAla-cellulose}; disulfide 2-12 (inferred); reading uncertain; also: printed as DCAWHLGVLVWCT-(βA)(βA))
0 | 0 | 0 | 01V: cellulose-bound 13-mer variant VCAWHLGELVWCT-(βA)(βA) (VCAWHLGELVWCT-{βAla-βAla-cellulose}; disulfide 2-12 (inferred); reading uncertain; also: printed as VCAWHLGELVWCT-(βA)(βA))
